Experimental data as given in PMC3146814, “The crystal structure of alanine racemase from Streptococcus pneumoniae, a target for structure-based drug design” (BMC Microbiology, 2011).

T1: alanine racemase from S. pneumoniae (AlrSP) (Streptococcus pneumoniae, UniProt P0A2W8)
T1 construct: gene alr; untagged as far as told, gene in pET17, E. coli BL21(DE3) pLysS; monomer residues 1-367; homodimer; Lys129 carbamylated
T1 sequence (P0A2W8 1-367): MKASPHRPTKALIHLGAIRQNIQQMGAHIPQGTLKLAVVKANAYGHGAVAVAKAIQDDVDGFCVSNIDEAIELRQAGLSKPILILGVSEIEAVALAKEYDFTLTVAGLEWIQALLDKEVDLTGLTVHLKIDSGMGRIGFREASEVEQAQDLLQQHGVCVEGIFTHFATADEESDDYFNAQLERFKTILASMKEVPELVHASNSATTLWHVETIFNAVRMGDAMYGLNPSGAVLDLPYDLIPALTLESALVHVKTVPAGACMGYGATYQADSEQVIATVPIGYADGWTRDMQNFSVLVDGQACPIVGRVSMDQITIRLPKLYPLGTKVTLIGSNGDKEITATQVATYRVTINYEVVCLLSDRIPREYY

B1: alanine racemase from Streptococcus pneumoniae (enzyme, UniProt P0A2W8 1-367, looked up)
chain: T1 sequence (P0A2W8 1-367)
modifications: PLP covalently bound to Lys40 by an internal aldimine bond (N'-pyridoxyl-lysine-5'-monophosphate, LLP); carbamylated Lys129
notes: alanine racemase (E.C. 5.1.1.1) of Streptococcus pneumoniae; the gene was cloned into pET17; the model holds residues 1-367 of each monomer (734 residues, 100%): alpha/beta barrel domain 1-238 and beta-strand domain 239-367; no tag is named; also called AlrSP; Alr

How the values were obtained:
[1] = target: T1, alanine racemase from S. pneumoniae (AlrSP); experiment: X-ray crystallography, […] Å; assay type: binding; settings: covalent; internal aldimine with Lys40 (LLP residue); active site; crystals grown at pH 7.2, 4 °C
[2] = target: the molecule itself; experiment: crystal structure; sitting drop vapor diffusion at 4°C, 1.2 M Na citrate, 0.1 M MES pH 7.2, 10% glycerol, protein 23 mg/ml; space group P3(1)21, two monomers in the asymmetric unit; 2.0 Å

Molecule	X-ray crystallography, 2.0 Å [1]	stoichiometry N [2]
Cc1ncc(COP(=O)(O)O)c(C=O)c1O [pyridoxal phosphate (PLP)]	The pyridoxal phosphate (PLP) cofactor is connected to Lys40 through an internal aldimine bond	–
B1	–	2
